Tests used:
Type in all cases: biochemical
KDR = biological target: T1, KDR (Homo sapiens, UniProt P35968); assay: KDR enzyme inhibition (Biotin-polyE4Y, alphascreen); settings: 0.1 μM ATP
T1 construct: purchased Upstate
Protocol: (§1) The test solution prepared above by dissolving a test compound in DMSO was added to the reaction solution in an amount of less than 5% based on the total reaction solution to analyze the capacity for enzyme inhibitory activity. The cpm value obtained when the test compounds was present relative to the cpm value in the absence of the test compound was represented by percentage, and IC50 (μM) was determined as the concentration of the test compound required to inhibit the enzyme activity by 50% relatively to the control solution.
The compounds prepared in the Examples were dissolved in dimethylsulfoxide (DMSO) at a concentration of 12.5 mM to prepare test solution, and enzyme reaction was conducted in a buffer solution containing 50 mM tris-HCl (pH 7.5), 5 mM MgCl2, 1 mM MnCl2, 0.01% tween-20 and 2 mM of DTT. 1 nM of Biotin-polyE4Y (Packard) and 0.1 μM of ATP were added to the buffer solution as substrates. 2 nM of recombinant KDR (Upstate) was added the resulting mixture and reaction was carried out at 30° C. for 1 hour. 10 μl of a diluted solution prepared by diluting alphascreen phosphotyrosine (T-Tyr-100, Packard) beads with a solution containing 6.25 mM of HEPES (pH 7.4), 250 mM of NaCl, 100 Mm EDTA, and 0.25% BSA was added to 15 μl of the KDR reaction solution. After a reaction at a room temperature for 1 hour, alphascreen signal was measured by a fusion a-FP (Packard). Inhibitory capacities of the test compounds for the enzyme activity were assessed according to the same method as in GSK-3β analysis, and IC50 value was calculated.

JNK-1 = biological target: T2, JNK-1 (Homo sapiens, UniProt P45983); assay: JNK-1 enzyme inhibition (GST-ATF2, 32P-ATP)
T2 construct: purchased Upstate
T2 sequence (P45983 whole entry, species assumed): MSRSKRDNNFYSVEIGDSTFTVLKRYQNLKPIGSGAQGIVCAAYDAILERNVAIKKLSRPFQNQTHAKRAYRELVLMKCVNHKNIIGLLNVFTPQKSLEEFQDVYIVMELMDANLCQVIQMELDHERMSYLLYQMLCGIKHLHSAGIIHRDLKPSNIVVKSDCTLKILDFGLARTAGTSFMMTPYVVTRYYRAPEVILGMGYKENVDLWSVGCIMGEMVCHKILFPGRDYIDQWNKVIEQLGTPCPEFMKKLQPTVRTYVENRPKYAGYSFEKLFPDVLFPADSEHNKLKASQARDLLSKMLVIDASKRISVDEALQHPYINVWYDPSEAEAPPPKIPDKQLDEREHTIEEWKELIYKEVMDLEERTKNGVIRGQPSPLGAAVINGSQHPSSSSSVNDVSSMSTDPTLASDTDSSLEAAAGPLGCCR

human GSK-3β = human GSK-3β (Homo sapiens, UniProt P49841); assay: GSK-3β enzyme inhibition (32P-ATP, phospho-CREB peptide, filter paper); settings: 100 μM ATP, 30° C., 1 hour
human GSK-3β, sequence (P49841 whole entry): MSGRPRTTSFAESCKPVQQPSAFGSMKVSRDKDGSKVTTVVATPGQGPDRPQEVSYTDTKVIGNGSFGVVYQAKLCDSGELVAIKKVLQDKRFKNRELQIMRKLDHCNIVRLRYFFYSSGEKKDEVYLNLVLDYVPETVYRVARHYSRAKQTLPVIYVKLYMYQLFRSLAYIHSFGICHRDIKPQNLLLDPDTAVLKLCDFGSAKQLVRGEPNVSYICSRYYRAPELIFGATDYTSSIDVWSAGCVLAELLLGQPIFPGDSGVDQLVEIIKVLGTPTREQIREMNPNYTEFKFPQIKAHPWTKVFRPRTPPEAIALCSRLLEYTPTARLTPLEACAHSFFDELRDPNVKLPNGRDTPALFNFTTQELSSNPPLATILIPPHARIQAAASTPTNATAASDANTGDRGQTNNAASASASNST
Protocol: GSK-3β was prepared by a gene recombination method.
First, primers corresponding to 5′-end and 3′-end of polynucleotide encoding human GSK-3β were designed and synthesized from nucleotide sequence of human GSK-3β (GenBank Reg. No. L33801). Then, the primers were amplified by PCR (polymerase chain reaction) in which a human DNA sequence was employed as a template and treated with restriction enzyme BamH1/XhoI. The resulting gene fragments were inserted into the corresponding identical restriction sites of pGex vector (GE Healthcare Life Science) to prepare an expression vector for transformation of E. coli BL21 (DE3) strain (Invitrogen). The transformed E. coli strain was inoculated to LB medium (1% Bacto tryptone, 0.5% yeast extract, 1% sodium chloride) and cultured until the optical density of the bacterial cells was about 0.5 at 600 nm and 37° C. Then, IPTG (isopropyl-β-D-thiogalactoside) was added thereto to a final concentration to 0.5 mM at 18° C. 16 hours after IPTG addition, the cells were subjected to centrifugation at 10,000×g for 10 mins and cell precipitates were collected. The cell precipitates were suspended in a buffer solution (30 mM tris-HCl (pH 7.5), 100 mM NaCl, 5% glycerol, 2 mM DTT) and the cells were smashed in an ice bath using a Sonic Dismembrator (Fisher, USA). The resulting solution was centrifuged at 16,000 rpm for 30 mins.
The supernatant obtained above was introduced to a pre-equilibrated GST column (Pharmacia, USA) and eluted by 5 mM glutachione. The effuent was subjected to SDS-PAGE and GSK-3β protein was collected. GST protein was cutt using thrombin. The GSK-3β protein thus obtained was diluted with a buffer solution (20 mM HEPES (pH 7.5), 5% glycerol, 2 mM DTT) until the concentration of NaCl reached 50 mM. The diluted solution was introduced to Mono S column (Pharmacia, USA) equilibrated with the above buffer solution and eluted with a aqueous NaCl while changing the concentration from 0 to 1 M NaCl, and GSK-3β protein was collected by a electrophoresis. The purified protein was used in the analysis for the activity for enzyme activity.
The enzyme reaction was conducted in a buffer solution (50 mM of tris-HCl (pH 7.5), 10 mM of MgCl2, 1 mM of EGTA, 1 mM of EDTA and 1 mM of DTT). 100 μM of phosho-CREB peptide (NEB, USA), 100 μM of ATP and 1 μCi of ^32P-ATP were added to the buffer solution as substrates. And then 100 nM of recombinant GSK-3β was added thereto and the mixture was reacted at 30° C. for 1 hour. The reaction was terminated by the addition of 5 μl of 5% phosphoric acid solution to 25 μl of the reaction mixture. The resulting solution was subjected to centrifugation at 15,000 for 10 mins and 20 μl of the supernatant thus obtained was dropped on whatman p81 filter paper. The filter paper was washed in 0.5% phosphoric acid solution for 10 mins. After repeating the washing 3 times, the filter paper was dried and its cpm (counter per mins) was assessed.
The test solution prepared above by dissolving a test compound in DMSO was added to the reaction solution in an amount of less than 5% based on the total reaction solution to analyze the capacity for enzyme inhibitory activity.

[1] = biological target: T3, p38 Mitogen-activated protein kinase (MAPK) (Homo sapiens, UniProt Q16539); assay: p38 MAPK enzyme inhibition (histone H1, 32P-ATP); settings: p38 MAPK (recombinant p38a)
T3 construct: purchased Upstate
T3 sequence (Q16539 whole entry): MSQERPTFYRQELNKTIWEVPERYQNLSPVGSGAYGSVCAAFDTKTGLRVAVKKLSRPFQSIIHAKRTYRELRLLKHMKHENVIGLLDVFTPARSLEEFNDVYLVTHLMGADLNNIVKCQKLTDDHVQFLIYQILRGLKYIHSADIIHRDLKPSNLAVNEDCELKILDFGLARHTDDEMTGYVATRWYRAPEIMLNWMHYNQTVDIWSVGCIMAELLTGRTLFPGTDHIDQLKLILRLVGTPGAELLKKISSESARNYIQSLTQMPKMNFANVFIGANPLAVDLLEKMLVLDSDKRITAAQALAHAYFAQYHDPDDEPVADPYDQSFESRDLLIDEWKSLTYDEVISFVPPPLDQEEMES

CDK-2/cycline A = biological target: T4, CDK-2/cycline A (Homo sapiens, UniProt P24941); assay: CDK-2 enzyme inhibition (histone H1, 32P-ATP)
T4 construct: purchased Upstate
Protocol: (§2) 0.33 mg/ml of MBP (Upstate), 100 μM of ATP and 0.25 μCi of ^32P-ATP were added to the buffer solution as substrates. 5 nM of recombinant Erk-1 (Upstate) was added the resulting mixture, and the mixture was reacted at 30° C. for 1 hour. The reaction was terminated by adding 5 μl of 5% phosphoric acid solution to 25 μl of the reaction mixture. 15 μl of the resulting solution was dropped on whatman p81 filter paper, which was then washed in 0.5% phosphoric acid solution for 10 mins. After repeating the washing 3 times, the filter paper was dried and cpm thereof was measured by a liquid scintillation counter (Packard, USA). Inhibitory capacities of the test compounds for the enzyme activity were assessed according to the same method as in GSK-3β analysis, and IC50 value was calculated.
The procedure of ERK-1 analysis was repeated to assess inhibitory capacities of the test compounds for the enzyme activity, except for using 2.5 μg of histone H1 (Upstate) and 100 nM of recombinant CDK-2/cycline A (Upstate).

ERK-1 = biological target: T5, ERK-1 (Homo sapiens, UniProt P27361); assay: ERK-1 enzyme inhibition (MBP, 32P-ATP); settings: ERK-1, 100 μM ATP
T5 construct: purchased Upstate
T5 sequence (P27361 whole entry, species assumed): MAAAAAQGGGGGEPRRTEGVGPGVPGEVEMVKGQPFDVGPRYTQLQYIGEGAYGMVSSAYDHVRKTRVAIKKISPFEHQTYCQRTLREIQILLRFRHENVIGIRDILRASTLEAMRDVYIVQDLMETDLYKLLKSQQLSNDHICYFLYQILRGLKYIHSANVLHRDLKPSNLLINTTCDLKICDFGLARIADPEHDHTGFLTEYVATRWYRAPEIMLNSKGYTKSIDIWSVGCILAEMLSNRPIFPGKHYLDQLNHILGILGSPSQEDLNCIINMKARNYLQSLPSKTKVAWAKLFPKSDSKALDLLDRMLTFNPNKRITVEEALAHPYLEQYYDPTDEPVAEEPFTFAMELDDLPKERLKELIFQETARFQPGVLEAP
Protocol: as §1
as §2, with “The compounds prepared in the Examples were dissolved in dimethylsulfoxide (DMSO) at a concentration of 12.5 mM to prepare test compounds and enzyme reaction was conducted in a buffer solution containing 50 mM of tris-HCl (pH 7.5), 10 mM of MgCl2, 1 mM of EGTA, 1 mM of EDTA and 1 mM of DTT. 0.33” for “0.33”

T1 sequence (P35968 20-1356, species assumed): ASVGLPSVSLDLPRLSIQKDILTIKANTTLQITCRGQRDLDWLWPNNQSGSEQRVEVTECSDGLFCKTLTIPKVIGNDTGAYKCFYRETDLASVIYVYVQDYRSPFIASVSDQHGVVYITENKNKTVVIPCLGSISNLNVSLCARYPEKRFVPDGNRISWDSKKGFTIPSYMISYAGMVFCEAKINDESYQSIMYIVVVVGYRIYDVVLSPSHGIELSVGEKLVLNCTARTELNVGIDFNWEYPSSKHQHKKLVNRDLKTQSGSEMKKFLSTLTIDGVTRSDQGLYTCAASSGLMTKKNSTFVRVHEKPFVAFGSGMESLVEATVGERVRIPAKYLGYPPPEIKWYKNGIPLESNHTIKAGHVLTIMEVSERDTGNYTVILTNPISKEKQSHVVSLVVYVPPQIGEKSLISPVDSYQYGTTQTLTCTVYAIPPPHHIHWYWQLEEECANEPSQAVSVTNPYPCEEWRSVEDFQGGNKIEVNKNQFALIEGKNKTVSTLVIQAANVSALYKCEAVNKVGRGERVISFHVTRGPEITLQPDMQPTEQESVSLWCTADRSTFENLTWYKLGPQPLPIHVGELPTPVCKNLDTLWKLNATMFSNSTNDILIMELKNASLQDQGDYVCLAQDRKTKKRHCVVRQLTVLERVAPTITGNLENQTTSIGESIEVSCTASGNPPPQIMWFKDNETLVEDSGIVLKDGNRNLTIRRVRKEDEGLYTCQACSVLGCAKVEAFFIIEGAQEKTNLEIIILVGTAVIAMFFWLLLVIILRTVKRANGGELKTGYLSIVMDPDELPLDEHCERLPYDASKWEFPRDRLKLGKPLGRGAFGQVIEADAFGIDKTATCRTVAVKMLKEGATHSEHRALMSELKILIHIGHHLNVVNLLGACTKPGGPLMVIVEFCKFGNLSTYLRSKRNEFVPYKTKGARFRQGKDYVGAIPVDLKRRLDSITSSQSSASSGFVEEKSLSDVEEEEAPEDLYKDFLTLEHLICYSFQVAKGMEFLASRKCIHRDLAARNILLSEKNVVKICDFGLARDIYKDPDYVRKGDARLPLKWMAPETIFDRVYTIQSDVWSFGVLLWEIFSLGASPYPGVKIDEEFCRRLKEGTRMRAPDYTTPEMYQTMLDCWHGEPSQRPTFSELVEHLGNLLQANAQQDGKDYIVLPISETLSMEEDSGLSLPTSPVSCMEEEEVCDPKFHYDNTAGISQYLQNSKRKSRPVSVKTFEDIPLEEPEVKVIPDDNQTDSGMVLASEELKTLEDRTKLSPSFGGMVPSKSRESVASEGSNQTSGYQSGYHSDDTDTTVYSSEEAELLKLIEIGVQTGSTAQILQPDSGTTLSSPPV

IC50 (KDR): 0.29 µM | IC50 (JNK-1): 14.5 µM | IC50 (human GSK-3β): 0.005 µM | IC50 [1]: 50 µM | IC50 (CDK-2/cycline A): 0.17 µM | IC50 (ERK-1): 25.5 µM
Compound: CCSc1ccncc1NC(=O)c1ccnc2[nH]c(-c3ccc(F)cc3)nc12 [Example 320, 2-(4-fluoro-phenyl)-3H-imidazo[4,5-b]pyridine-7-carboxylic acid(4-ethylsulfanyl-pyridin-3-yl)-amide]
